For 30 compounds, TGI and GI50 results are on record in PubChem BioAssay (NCI).

SMILES strings stand for the structures. “And” between values parts separate entries of the source, which are not always exact repeats. Identical values can stand only once.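 Exposure lasted 48 hours, with cells grown in 96-well plates and compounds tested at five concentrations. GI50 is the concentration that inhibits growth by half. The concentration for full growth arrest is given as TGI.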

Holding throughout (assay): DTP human tumour cell line panel, 48 h
Assay [1] concerns A549 NSCLC.
For assay [2], the system named is COLO 205 colon.
Assay [3] concerns HCT-116 colon.
For assay [4], the system named is HL-60(TB) leukemia.
In assay [5] the test system is DMS 114 small cell lung.
Assay [6] has as its system DLD-1 colon.
The test system of assay [7] is HCT-15 colon.
Assay [8] has as its system PC-3 prostate.
For assay [9], the system named is NCI/ADR-RES ovarian.
Assay [10] has as its system MDA-MB-231 breast.

Usually TGI stands for the concentration giving total growth inhibition. For the compound `Nn1c(-c2cccc(Cl)c2)nc2ccccc2c1=O`, the TGI in [1], in [2], in assay [3], in [4], in assay [5] and in assay [6] was > 100 µM throughout. Besides, the total growth inhibition concentration (TGI) in assay [7] was > 100 µM.
In general, GI50 refers to the concentration giving 50% growth inhibition. As to `CCC[CH2][Sn]([CH2]CCC)([O]C(=O)c1cc(F)ccc1F)[O]C(=O)c1cc(F)ccc1F`, the GI50 in [1] is 7.72 µM; in assay [2], 1.12 µM; in assay [3], 1250 nM; in assay [4], 0.506 µM; in assay [5], 0.372 µM; in assay [6], 0.915 µM. Further, in [7], the GI50 was 1.18 µM. Besides, the TGI in assay [1] was 21 µM; in assay [2], 2.32 µM; in assay [3] it was 2.5 µM; in assay [4] it was 3.09 µM; in assay [5] it was 1.41 µM; in [6], 2.16 µM. This compound also gave a total growth inhibition concentration (TGI) in assay [7] of 2.44 µM.
On to `Cc1ccc(C2[C@H]3C(=O)N(c4ccc(Cc5ccc(N6C(=O)[C@@H]7ON(c8ccccc8)C(c8ccc(C)cc8)[C@@H]7C6=O)cc5)cc4)C(=O)[C@H]3ON2c2ccccc2)cc1` (stereo partly specified), for which the total growth inhibition concentration (TGI) in assay [1], in assay [2], in assay [4], in assay [5], in assay [6] and in [7] was > 100 µM each time.
As for `C[C@]12Cc3conc3C(O)=C1CC[C@@H]1C2CC[C@@]2(C)C1CC[C@]2(C)O` (stereo partly specified), the concentration for total growth inhibition (TGI) in assay [1] is > 100 µM; in assay [2] it was 52.1 µM; in assay [3], 39.3 µM; in assay [4], 10.7 µM; in assay [5] it was 43.4 µM; in assay [6], 57.5 µM. Further, the total growth inhibition concentration (TGI) in assay [7] is > 100 µM.
With `C[C@]12CC(C=O)C(=O)C(O)=C1CC[C@@H]1C2CC[C@@]2(C)C1CC[C@]2(C)O` (stereo partly specified), the TGI in assay [1] is > 100 µM; in assay [2], 38.3 µM; in assay [3], 54.3 µM; in [4], 41.5 µM; in [5], 33.4 µM; in assay [6], 34.5 µM. Further, in assay [7], the TGI was determined as 60.8 µM.
In the case of `Cc1cc(Cl)ccc1N=C1NC(=O)C(CC(=O)Nc2cccc(C)c2C)S1` (stereo unspecified), the TGI in assay [1] was 96.3 µM; in assay [2], 46.2 µM; in assay [5], 66.6 µM; in [6] it was > 100 µM; in assay [7], > 100 µM.
As for `COc1cc([C@@H]2OC(=O)C3C2C(=O)O[C@H]3c2ccc(O)c(OC)c2)ccc1O` (stereo partly specified), the TGI in [1], in assay [2], in [3], in assay [5], in assay [6] and in assay [7] was > 100 µM throughout.
`CC(C)N1C(C)[C@@H](c2ccccc2)O[P@@]1(=O)CC1=CCCCC1` (stereo partly specified): the TGI in assay [1] is > 100 µM; in assay [2] it was > 100 µM; in assay [3] it was > 100 µM; in assay [4] it was 63.7 µM; in assay [5] it was > 100 µM; in assay [6] it was > 100 µM. The TGI in assay [7] was > 100 µM.
For the compound `O=[N+]([O-])c1cccc(S(=O)(=O)N/N=C/c2cc(I)cc([N+](=O)[O-])c2O)c1`, the concentration for total growth inhibition (TGI) in assay [1] is > 100 µM; in [2], 31.7 µM; in assay [3] it was 71.1 µM; in assay [4], 47 µM; in assay [5], 53.8 µM; in assay [6], > 100 µM. The TGI in assay [7] was 65.5 µM.
Take `CCCCCCCCC(C)CCCCCCCCC(=O)OCC(COP(=O)([O-])OCC[N+](C)(C)C)OC(=O)CCCCCCCCC(C)CCCCCCCC` (stereo unspecified): the concentration for total growth inhibition (TGI) in assay [1], in [2], in assay [3], in assay [4], in [5] and in assay [6] was > 100 µM in each case. The TGI in assay [7] is > 100 µM.
Turning to `COc1cc(C2c3cc4c(cc3[C@@H](Nc3ccc([N+](=O)[O-])cc3)C3COC(=O)[C@H]23)OCO4)cc(OC)c1O` (stereo partly specified), the TGI is > 100 µM in assay [8]; 3.72 µM in assay [1]; 10.1 µM in assay [2]; 14.2 µM in assay [3]; 6.26 µM in [5]; 19.2 µM in assay [6]. For the same compound, the TGI in assay [7] was 19.6 µM; in assay [9], > 93.6 µM. In addition, the GI50 in [1] was 0.157 µM and 0.166 µM; in assay [4] it was 0.0114 µM; in assay [5], 0.614 µM; in assay [6], 3.15 µM.
For the compound `N#CC(C(=N/O)/C(=N\O)C(C#N)c1ccccc1)c1ccccc1` (stereo unspecified), the TGI in assay [1], in assay [2], in assay [3], in [4], in assay [5] and in assay [6] was > 100 µM in each case. Moreover, the TGI in assay [7] was > 100 µM.
Turning to `O=[N+]([O-])c1ccc(C2SCc3nc4ccccc4n32)cc1` (stereo unspecified), the total growth inhibition concentration (TGI) in [1], in [2], in assay [4], in assay [5] and in [6] was > 100 µM each time.
Regarding `O=C(O)/C(Cl)=C(Cl)/C=N/NC(=O)c1cc2ccccc2cc1O`, the total growth inhibition concentration (TGI) in assay [1] was > 100 µM; in [2] it was > 100 µM; in assay [3], > 100 µM; in assay [4] it was > 100 µM; in assay [5] it was 51.5 µM; in assay [6], > 100 µM. For the same compound, the TGI in assay [7] is > 100 µM.
Regarding `Cc1cc(N(CCC#N)CCC#N)ccc1/C=C(\NC(=O)/C=C/c1ccccc1)C(=O)Nc1ccc(Cl)cc1`, the TGI is > 100 µM in assay [8]; > 100 µM in assay [1]; 12.7 µM in assay [2]; > 100 µM in [3]; > 100 µM in [4]; > 100 µM in assay [10]. Besides, the concentration for total growth inhibition (TGI) in assay [5], in assay [6], in [7] and in [9] was > 100 µM throughout.
For the compound `O=C(Nc1ccc([N+](=O)[O-])cc1[N+](=O)[O-])C(=O)C(C(=O)c1ccc(Cl)c(Cl)c1)C1OC(=O)c2ccccc21` (stereo unspecified), the TGI in assay [1] worked out at 73.7 µM; in [2], 48.4 µM; in assay [3], 38.4 µM; in assay [4] it was 85.3 µM; in [5], 59.5 µM; in assay [6], 42.4 µM. In assay [7], this compound gave a TGI of 76.7 µM.
Take `CCCS(=O)c1nc(COC(=O)NC)c(COC(=O)NC)n1C` (stereo unspecified): the total growth inhibition concentration (TGI) in [1], in assay [2], in [3], in assay [4], in assay [5] and in assay [6] was > 100 µM each time. The TGI in [7] and in [9] was > 100 µM each time.
Consider `CC(=O)[CH-]C(=O)c1ccccc1.CC(=O)[CH-]C(=O)c1ccccc1.CC[C@H](/C=C/C(C)[C@H]1CCC2[C@@H]3CC=C4C[C@@H]([O-])CC[C@]4(C)C3CC[C@@]21C)C(C)C.CC[C@H](/C=C/C(C)[C@H]1CCC2[C@@H]3CC=C4C[C@@H]([O-])CC[C@]4(C)C3CC[C@@]21C)C(C)C.Cl.[Ti+4]` (stereo partly specified), for which the GI50 in assay [1] was > 25 µM; in [2], > 25 µM; in assay [3], > 25000 nM; in [4], 6.35 µM; in assay [6] it was > 25 µM; in [7], > 25 µM. Moreover, the TGI is > 25 µM in assay [1]; > 25 µM in [2]; > 25 µM in [3]; 16.6 µM in assay [4]; > 25 µM in assay [6]; > 25 µM in assay [7].
With `COc1ccc(/C=C\c2cc(OC)c(OC)c(OC)c2)cc1OC(=O)CC(N)C(=O)O` (stereo unspecified), the concentration for 50% growth inhibition (GI50) was 0.00227 µM in assay [8]; 0.00304 µM in assay [1]; 4.11 µM in assay [2]; 0.0407 nM in assay [3]; 0.000165 µM in [4]; 0.00402 µM in [10]. In addition, the GI50 in assay [7] was 0.000452 µM. The total growth inhibition concentration (TGI) in [1] is 49.5 µM; in assay [2], 21 µM; in assay [10], 0.00404 µM; in assay [5], 0.00318 µM; in [6], > 100 µM; in assay [9], 0.000534 µM.
As to `O=C1NC2C3CC(OCc4ccccc4)(OCc4ccccc4)C2OC3O1` (stereo unspecified), the TGI in assay [1], in [2], in assay [3], in assay [4], in assay [5] and in assay [6] was > 50 µM each time. Also, in [7], the concentration for total growth inhibition (TGI) is > 50 µM.
In the case of `CN(C)C(=S)/N=c1\ssc(=S)n1Cc1ccco1`, the concentration for total growth inhibition (TGI) was > 100 µM in assay [8]; > 100 µM in assay [1]; > 100 µM in assay [2]; > 72 µM in assay [3]; 8.2 µM in assay [4]; 84.2 µM in assay [10]. In addition, the results for the TGI in assay [5], in [6] and in assay [7] were > 74 µM, > 100 µM and > 100 µM, respectively.
Take `O=C(COC(=O)c1cccc2c(=O)c3ccccc3[nH]c12)Nc1ccc(Cl)cc1`: the TGI in assay [1], in [2], in assay [3], in assay [4], in assay [5] and in assay [6] was > 100 µM throughout.
In the case of `O=NN1CCN=C1c1ccc([N+](=O)[O-])cc1`, the total growth inhibition concentration (TGI) in assay [1], in assay [2], in [3], in assay [4], in [6] and in assay [7] was > 100 µM each time.
Consider `CCOC(=O)/C(C#N)=C\Sc1ccccc1`, for which the TGI was > 100 µM in [1]; 38.4 µM in assay [2]; 59.8 µM in assay [3]; 45.6 µM in [4]; 33.9 µM in [5]; 45.5 µM in assay [6].
As for `NCCCC(N=Cc1nc(-c2ccccc2)oc1O)C(=O)O` (stereo unspecified), the TGI in [1], in assay [2], in [3], in [4], in assay [5] and in assay [6] was > 100 µM in each case. For the same compound, in assay [7], the total growth inhibition concentration (TGI) was > 100 µM.
In the case of `COc1ccc(NC(=O)c2oc3cc(O)ccc3c(=O)c2C)c([N+](=O)[O-])c1`, the concentration for total growth inhibition (TGI) in [1], in [2], in [3], in assay [4], in [5] and in assay [6] was > 100 µM each time. Further, in [7], the TGI is > 100 µM.
As for `O=C1C(Cl)=C(Cl)C(=O)N1c1cccc(C(F)(F)F)c1`, the total growth inhibition concentration (TGI) in [1], in assay [2], in assay [3], in [4], in assay [5] and in [6] was > 100 µM each time. Besides, in assay [7], the TGI was > 100 µM.
On to `CCCCCCCCCCCCCCCCCCOCC(C[N+]1(C)CCC(O)CC1)OCC` (stereo unspecified), for which the TGI in assay [1] came out at 32.9 µM; in [2], 14.2 µM; in [3], 27.6 µM; in assay [4], 8.42 µM; in assay [5], 12.6 µM; in assay [6], 44.8 µM.
`O=C1C(Cl)=C(Cl)C(=O)N1c1ccc(F)cc1`: the TGI in assay [8] was 29.8 µM; in assay [1], > 100 µM; in assay [2], 35.1 µM; in assay [3], > 54.5 µM; in assay [4], 11.5 µM; in [10], 33 µM. Further, the concentration for total growth inhibition (TGI) in [5] amounted to 39.4 µM; in assay [6], 41 µM; in [7], 34 µM.
With `CC1(C2COC(=O)C2)SCCCS1` (stereo unspecified), the TGI in assay [1], in assay [2], in [3], in [4], in assay [5] and in assay [6] was > 100 µM in each case. Besides, the TGI in assay [7] is > 100 µM.
